According to US8283346B2, “Human immunodeficiency virus protease inhibitors” (The Trustees of the Stevens Institute of Technology, priority 2009, dated 2012):
Values joined by “and” are separate entries in the source; they are usually repeats but may differ in a detail not shown here. Equal entries are not always repeated.

Biological target: T1, HIV-1 protease (Human immunodeficiency virus type 1 group M subtype B, UniProt P04585)
T1 construct: The HIV-1 protease is composed of 99 amino acids
Assay: In vitro HIV-1 protease assay
Assay type: biochemical
Details: for IC50: purified HIV-1 protease 15 picomolar, peptide substrate 440 micromolar, pH 5.5, 30° C., 60 minutes, HPLC fluorescence detection; for biological activity compared with another named compound, in words: comparator named in the value; for fold higher biological activity than the corresponding SRR (C4) diastereomer: SRS compound vs its SRR diastereomer (4 vs 3, 6 vs 5, 17 vs 16, 13 vs 12, 19 vs 18, 23 vs 22, 21 vs 20)
Description: Compounds were evaluated for the ability to inhibit the enzymatic activity of HIV-1 protease in an in vitro assay. Protease activity was assessed in reactions catalyzed by purified HIV-1 protease at a concentration of 15 picomolar in buffer (50 mM sodium acetate, pH 5.5, 100 mM NaCl, 1 mg/mL bovine serum albumin) using a peptide substrate with sequence Val-Ser-Gln-Asn-(beta-naphthylalanine)-Pro-IIe-Val at a concentration of 440 micromolar in a final volume of 80 microliters. Compounds in DMSO stock were added to a final DMSO concentration of 2.5% and preincubated with enzyme prior to the initiation of the reaction by addition of substrate. Reactions were incubated at 30° C. for 60 minutes and were then quenched by the addition of 120 microliters 10% H3PO4. The amount of product formed was determined using high performance liquid chromatography with a Vydac C18 column and fluorescence detection of product. Percent inhibition was determined relative to control reactions without inhibitor, and half maximal inhibitory concentration (IC50) values were determined using a standard four parameter fit to the inhibition data. The IC50 is a quantitative measure of the effectiveness of a compound in inhibiting biological or biochemical function that indicates how much a particular compound or other substance is needed to inhibit a given biological process (or component of a process) by half.

SMILES | fold greater activity than compound 1 (R=H) (mixture of two C4 diastereomers vs compound 1) | IC50 | biological activity compared with another named compound, in words | fold higher biological activity than the corresponding SRR (C4) diastereomer | biological activity (HIV-1 protease inhibition) in words
CC1Cc2ccccc2S(=O)(=O)N(C[C@@H](O)[C@H](Cc2ccccc2)NC(=O)OC(C)(C)C)C1 (mixture of isomers) [Compound 2] | ten-fold greater activity | 240 nM and 220 nM |  |  | 
CC(C)(C)OC(=O)N[C@@H](Cc1ccccc1)[C@H](O)CN1CC(c2ccccc2)Cc2ccccc2S1(=O)=O (mixture of isomers) [Compound 7] |  | 455 nM | biological activity higher than that of Compound 1 |  | 
CC(C)(C)OC(=O)N[C@@H](Cc1ccccc1)[C@H](O)CN1CCCc2ccccc2S1(=O)=O [Compound 1] |  | 2800 nM and 3050 nM | much less active when compared to Compound 4 |  | 
C=CCOC(=O)N[C@@H](Cc1ccccc1)[C@H](O)CN1C[C@H](C)Cc2ccccc2S1(=O)=O [Compound 3] |  | 5960 nM |  |  | 
C=CCOC(=O)N[C@@H](Cc1ccccc1)[C@H](O)CN1C[C@@H](C)Cc2ccccc2S1(=O)=O [Compound 4] |  | 157 nM |  | approximately 40 fold | 
CCOC(=O)N[C@@H](Cc1ccccc1)[C@H](O)CN1C[C@H](C)Cc2ccccc2S1(=O)=O [Compound 5] |  | 10800 nM |  |  | 
CCOC(=O)N[C@@H](Cc1ccccc1)[C@H](O)CN1C[C@@H](C)Cc2ccccc2S1(=O)=O [Compound 6] |  | 199 nM |  | approximately 54 fold | 
C=CCOC(=O)N[C@@H](Cc1ccccc1)[C@H](O)CN1C[C@H](c2ccccc2)Cc2ccccc2S1(=O)=O [Compound 8] |  | 3260 nM | lower biological activity than that of Compound 9 |  | 
C=CCOC(=O)N[C@@H](Cc1ccccc1)[C@H](O)CN1C[C@@H](c2ccccc2)Cc2ccccc2S1(=O)=O [Compound 9] |  | 470 nM | higher biological activity than that of Compound 3 |  | 
CCOC(=O)N[C@@H](Cc1ccccc1)[C@H](O)CN1C[C@H](c2ccccc2)Cc2ccccc2S1(=O)=O [Compound 10] |  | 2440 nM |  |  | 
CCOC(=O)N[C@@H](Cc1ccccc1)[C@H](O)CN1C[C@@H](c2ccccc2)Cc2ccccc2S1(=O)=O [Compound 11] |  | 864 nM | higher biological activity than that of Compound 10 |  | 
C[C@@H]1Cc2cc(F)ccc2S(=O)(=O)N(C[C@@H](O)[C@H](Cc2ccccc2)NC(=O)OC(C)(C)C)C1 [Compound 12] |  | 15700 nM |  |  | 
C[C@H]1Cc2cc(F)ccc2S(=O)(=O)N(C[C@@H](O)[C@H](Cc2ccccc2)NC(=O)OC(C)(C)C)C1 [Compound 13] |  | 119 nM | higher biological activity than Compound 15 | ~132 fold | 
C[C@@H]1Cc2ccccc2S(=O)(=O)N(C[C@@H](O)[C@H](Cc2ccccc2)NC(=O)OC(C)(C)C)C1 [Compound 14] |  | 5470 nM |  |  | 
C[C@H]1Cc2ccccc2S(=O)(=O)N(C[C@@H](O)[C@H](Cc2ccccc2)NC(=O)OC(C)(C)C)C1 [Compound 15] |  | 169 nM | higher biological activity than that of Compound 14 |  | 
C[C@H]1Cc2ccccc2S(=O)(=O)N(C[C@@H](O)[C@H](Cc2ccccc2)NC(=O)Oc2ccccc2)C1 [Compound 17] |  | 2060 nM | higher activity than Compound 16 | approximately 10 fold | 
C[C@H]1Cc2cc(C(F)(F)F)ccc2S(=O)(=O)N(C[C@@H](O)[C@H](Cc2ccccc2)NC(=O)OC(C)(C)C)C1 [Compound 19] |  | 1120 nM |  | ~18 fold | not very active
C[C@@H]1Cc2ccc(C(F)(F)F)cc2S(=O)(=O)N(C[C@@H](O)[C@H](Cc2ccccc2)NC(=O)OC(C)(C)C)C1 [Compound 20] |  | 8300 nM |  |  | 
C[C@H]1Cc2ccc(C(F)(F)F)cc2S(=O)(=O)N(C[C@@H](O)[C@H](Cc2ccccc2)NC(=O)OC(C)(C)C)C1 [Compound 21] |  | 612 nM |  | ~14 fold | 
COc1ccc2c(c1)C[C@@H](C)CN(C[C@@H](O)[C@H](Cc1ccccc1)NC(=O)OC(C)(C)C)S2(=O)=O [Compound 22] |  | 6100 nM |  |  | not active
COc1ccc2c(c1)C[C@H](C)CN(C[C@@H](O)[C@H](Cc1ccccc1)NC(=O)OC(C)(C)C)S2(=O)=O [Compound 23] |  | 107 nM |  | ~57 fold | excellent activity
C[C@H]1Cc2cc(F)ccc2S(=O)(=O)N(C[C@@H](O)[C@H](Cc2ccccc2)NC(=O)C2CN(c3ccccc3)C(=O)O2)C1 (stereo partly drawn) [Compound 24] |  | 176 nM |  |  | highly active
